Measurements as given in patent publication US12391697B2, “Condensed bi-heterocycles as inhibiting agents for Bruton's tyrosine kinase” (BIOGEN MA INC., priority 2019, dated 2025).
pIC50: −log10 of the molar value. Structures can show the parent of a compound that is named as a salt.

These molecules were tested against BTK (Homo sapiens (Human), UniProt Q06187) (assay: In Vitro BTK Kinase Assay: Btk-PolyGAT-LS Assay). Conditions: active BTK enzyme 0.25 nM, ATP 10 μM, polyGAT 100 nM, 30 minutes.
Format: biochemical
Experimental: In Vitro BTK Kinase Assay: Btk-PolyGAT-LS Assay
The purpose of the BTK in vitro assay is to determine compound potency against BTK through the measurement of IC50. […] The BTK kinase reaction was done in a black 96 well plate (costar 3694). For a typical assay, a […] aliquot of a ATP/peptide master mix (final concentration; ATP 10 μM, polyGAT 100 nM) in kinase buffer (10 mM Tris-HCl pH 7.5, 10 mM MgCl2, 200 μM […], 5 mM DTT, 0.01% Triton X-100, and 0.2 mg/ml casein) is added to each well. Next, […] of a 4-fold, 40× compound titration in 100% DMSO solvent is added, followed by adding 15 uL of BTK enzyme mix in 1× kinase buffer (with a final concentration of 0.25 nM). The assay is incubated for 30 minutes before being stopped with […] of a 50 mM EDTA solution. Aliquots (5 uL) of the kinase reaction are transferred to a low volume white 384 well plate (Corning 3674), and […] of a 2× detection buffer (Invitrogen PV3574, with 4 nM Tb-PY20 antibody, Invitrogen PV3552) is added. The plate is covered and incubated for 45 minutes at room temperature. Time resolved fluorescence (TRF) on Molecular Devices M5 (332 nm excitation; 488 nm emission; 518 nm fluorescein emission) is measured.

BTK, sequence (Q06187 whole entry): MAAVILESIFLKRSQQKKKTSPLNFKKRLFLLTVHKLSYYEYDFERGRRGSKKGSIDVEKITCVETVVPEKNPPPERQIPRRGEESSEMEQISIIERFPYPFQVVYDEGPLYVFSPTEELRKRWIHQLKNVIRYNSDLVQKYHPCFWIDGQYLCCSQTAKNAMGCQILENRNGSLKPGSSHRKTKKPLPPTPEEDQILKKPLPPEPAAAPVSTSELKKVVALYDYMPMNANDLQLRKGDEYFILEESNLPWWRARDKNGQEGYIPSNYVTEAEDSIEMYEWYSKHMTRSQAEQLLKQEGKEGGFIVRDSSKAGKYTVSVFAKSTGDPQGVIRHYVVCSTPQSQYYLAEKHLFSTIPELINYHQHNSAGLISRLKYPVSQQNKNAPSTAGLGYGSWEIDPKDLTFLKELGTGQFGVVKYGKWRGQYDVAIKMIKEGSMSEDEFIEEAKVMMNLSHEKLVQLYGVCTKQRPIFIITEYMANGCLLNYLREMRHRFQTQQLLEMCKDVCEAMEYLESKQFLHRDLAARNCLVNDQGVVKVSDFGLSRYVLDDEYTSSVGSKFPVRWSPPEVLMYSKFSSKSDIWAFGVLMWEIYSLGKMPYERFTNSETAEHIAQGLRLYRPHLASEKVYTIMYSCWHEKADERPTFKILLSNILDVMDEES

`CO[C@H]1CCN(c2cc3c(-c4ccc(CNC(=O)c5nc(C(C)(C)C)no5)c(C)c4)ncnn3c2)C1` (single isomer, unassigned) [Example 23] and `Cc1cc(-c2ncnn3cc(N4CCO[C@H](C)C4)cc23)ccc1CNC(=O)c1nc(C(C)(C)C)no1` (single isomer, unassigned) [Example 137] cannot be ordered by pIC50: ≥ 9.00 for the first, ≥ 9.00 for the second.

`Cc1c(CNC(=O)c2nc(C(C)(C)C)no2)ccc(-c2ncnn3cc(N4CCN(C)[C@H](C)C4)cc23)c1F` (single isomer, unassigned) [Example 25] and `Cc1cc(-c2ncnn3cc(N4CCN(C)[C@H](C)C4)cc23)ccc1CNC(=O)c1nc(C(C)(C)C)no1` (single isomer, unassigned) [Example 27] cannot be ordered by pIC50: ≥ 9.00 for the first, ≥ 9.00 for the second.

`Cc1cc(-c2ncnn3cc(N4CCO[C@@H](C)C4)cc23)ccc1CNC(=O)c1noc(C(C)(C)C)n1` (single isomer, unassigned) [Example 29] and `Cc1cc(-c2ncnn3cc(N4CCO[C@@H](C)C4)cc23)ccc1CNC(=O)c1nc(C(C)(C)C)no1` (single isomer, unassigned) [Example 138] cannot be ordered by pIC50: ≥ 9.00 for the first, ≥ 9.00 for the second.

`Cc1cc(-c2ncnn3cc(N4C[C@@H](C)O[C@H](C)C4)cc23)ccc1CNC(=O)c1noc(C(C)(C)C)n1` (single isomer, unassigned) [Example 43] and `Cc1cc(-c2ncnn3cc(N4CCN(C)[C@@H](C)C4)cc23)ccc1CNC(=O)c1noc(C(C)(C)C)n1` (single isomer, unassigned) [Example 116] cannot be ordered by pIC50: ≥ 9.00 for the first, ≥ 9.00 for the second.

`Cc1cc(-c2ncnn3cc(N4CCN(C)[C@H](C)C4)cc23)ccc1CNC(=O)c1noc(C(C)(C)C)n1` (single isomer, unassigned) [Example 117] and `Cc1cc(-c2ncnn3cc(N4CC[C@H](F)C4)cc23)ccc1CNC(=O)c1noc(C(C)(C)C)n1` (single isomer, unassigned) [Example 141] cannot be ordered by pIC50: ≥ 9.00 for the first, ≥ 9.00 for the second.

`Cc1cc(-c2ncnn3cc(C4=CCOCC4)cc23)ccc1CNC(=O)c1cnc(C(C)(C)C)o1` (single isomer, unassigned) [Example 125] and `Cc1cc(-c2ncnn3cc(C4=CCOCC4)cc23)ccc1CNC(=O)c1ccn(C(C)(C)C)n1` (single isomer, unassigned) [Example 127] cannot be ordered by pIC50: ≥ 9.00 for the first, ≥ 9.00 for the second.

`Cc1cc(-c2ncnn3cc(N4CCO[C@H](C)C4)cc23)ccc1CNC(=O)c1nnn(C(C)(C)C)n1` (single isomer, unassigned) [Example 139] and `Cc1cc(-c2ncnn3cc(N4CCO[C@@H](C)C4)cc23)ccc1CNC(=O)c1nnn(C(C)(C)C)n1` (single isomer, unassigned) [Example 140] cannot be ordered by pIC50: ≥ 9.00 for the first, 8.00 to 9.00 for the second.

`Cc1cc(-c2ncnn3cc(N4CC[C@@H](F)C4)cc23)ccc1CNC(=O)c1noc(C(C)(C)C)n1` (single isomer, unassigned) [Example 142] and `Cc1cc(-c2ncnn3cc(Br)cc23)ccc1CNC(=O)c1noc(C(C)(C)C)n1` [Example 51] cannot be ordered by pIC50: ≥ 9.00 for the first, 8.00 to 9.00 for the second.

`Cc1cc(-c2ncnn3cc(N4CCO[C@H](C)C4)cc23)ccc1CNC(=O)c1coc(C(C)(C)C)n1` (single isomer, unassigned) [Example 143] and `Cc1cc(-c2ncnn3cc(N4CCO[C@@H](C)C4)cc23)ccc1CNC(=O)c1coc(C(C)(C)C)n1` (single isomer, unassigned) [Example 144] cannot be ordered by pIC50: ≥ 9.00 for the first, ≥ 9.00 for the second.

`Cc1cc(-c2ncnn3cc(-c4cnn(C)c4)cc23)ccc1CNC(=O)c1nnc(C(C)(C)C(F)F)o1` [Example 3, 5-(1,1-difluoro-2-methylpropan-2-yl)-N-(2-methyl-4-(6-(1-methyl-1H-pyrazol-4-yl)pyrrolo[2,1-f][1,2,4]triazin-4-yl)benzyl)-1,3,4-oxadiazole-2-carboxamide] and `Cc1cc(-c2ncnn3cc(-c4cnn(C)c4)cc23)ccc1CNC(=O)c1noc(C(C)(C)CF)n1` [Example 41, 5-(1-fluoro-2-methylpropan-2-yl)-N-(2-methyl-4-(6-(1-methyl-1H-pyrazol-4-yl)pyrrolo[2,1-f][1,2,4]triazin-4-yl)benzyl)-1,2,4-oxadiazole-3-carboxamide] cannot be ordered by pIC50: ≥ 9.00 for the first, ≥ 9.00 for the second.

`Cc1cc(-c2ccnn3cccc23)ccc1CNC(=O)c1noc(C(C)(C)C)n1` [Example 17, 5-(tert-butyl)-N-(2-methyl-4-(pyrrolo[1,2-b]pyridazin-4-yl)benzyl)-1,2,4-oxadiazole-3-carboxamide] and `Cc1cc(-c2ccnn3cccc23)ccc1CNC(=O)c1nc(C(C)(C)C)no1` [Example 18, 3-(tert-butyl)-N-(2-methyl-4-(pyrrolo[1,2-b]pyridazin-4-yl)benzyl)-1,2,4-oxadiazole-5-carboxamide] fall in the same range of pIC50: 8.00 to 9.00 for the first, 8.00 to 9.00 for the second.

`Cc1cc(-c2ncnn3ccc(F)c23)ccc1CNC(=O)c1noc(C(C)(C)C)n1` [Example 19, 5-(tert-butyl)-N-(4-(5-fluoropyrrolo[2,1-f][1,2,4]triazin-4-yl)-2-methylbenzyl)-1,2,4-oxadiazole-3-carboxamide trifluoroacetate] and `Cc1cc(-c2ncnn3ccc(C)c23)ccc1CNC(=O)c1noc(C(C)(C)C)n1` [Example 49] fall in the same range of pIC50: 8.00 to 9.00 for the first, 8.00 to 9.00 for the second.

First: Cc1cc(-c2ncnn3cccc23)ccc1CNC(=O)c1coc(C(C)(F)F)n1 [Example 20, 2-(1,1-difluoroethyl)-N-(2-methyl-4-(pyrrolo[2,1-f][1,2,4]triazin-4-yl)benzyl)oxazole-4-carboxamide trifluoroacetate]
Second: Cc1cc(-c2ncnn3cncc23)ccc1CNC(=O)c1noc(C(C)(C)C)n1 [Example 54]
The pIC50 of the first is lower: < 8.00 for the first, 8.00 to 9.00 for the second. The second is the more potent here.

First: Cc1cc(-c2ccnn3ccnc23)ccc1CNC(=O)c1noc(C(C)(C)C)n1 [Example 21, 5-(tert-butyl)-N-(4-(imidazo[1,2-b]pyridazin-8-yl)-2-methylbenzyl)-1,2,4-oxadiazole-3-carboxamide trifluoroacetate]
Second: Cc1cc(-c2ccnn3cnnc23)ccc1CNC(=O)c1noc(C(C)(C)C)n1 [Example 47]
The pIC50 of the first is higher: 8.00 to 9.00 for the first, < 8.00 for the second. The first is the more potent here.

Compared with `Cc1cc(-c2ccnc3cc(N4CCOCC4)nn23)ccc1CNC(=O)c1noc(C(C)(C)C)n1` [Example 22, 5-(tert-butyl)-N-(2-methyl-4-(2-morpholinopyrazolo[1,5-a]pyrimidin-7-yl)benzyl)-1,2,4-oxadiazole-3-carboxamide], `Cc1cc2nccc(-c3ccc(CNC(=O)c4noc(C(C)(C)C)n4)c(C)c3)n2n1` [Example 46] is lower in pIC50: 8.00 to 9.00 for the first, < 8.00 for the second.

`Cc1c(CNC(=O)c2noc(C3(C)CC3)n2)ccc(-c2ncnn3cc(-c4cnn(C)c4)cc23)c1F` [Example 42, N-(3-fluoro-2-methyl-4-(6-(1-methyl-1H-pyrazol-4-yl)pyrrolo[2,1-f][1,2,4]triazin-4-yl)benzyl)-5-(1-methylcyclopropyl)-1,2,4-oxadiazole-3-carboxamide hydrochloride] and `C=CC(=O)n1cc(-c2cc3c(-c4ccc(CNC(=O)c5noc(C(C)(C)C)n5)c(C)c4)ncnn3c2)cn1` [Example 59, N-(4-(6-(1-acryloyl-1H-pyrazol-4-yl)pyrrolo[2,1-f][1,2,4]triazin-4-yl)-2-methylbenzyl)-5-(tert-butyl)-1,2,4-oxadiazole-3-carboxamide] cannot be ordered by pIC50: ≥ 9.00 for the first, ≥ 9.00 for the second.

`Cc1cc(-c2ncnn3cnc(C)c23)ccc1CNC(=O)c1noc(C(C)(C)C)n1` [Example 48] and `Cc1cc(-c2ncnn3ccnc23)ccc1CNC(=O)c1noc(C(C)(C)C)n1` [Example 52] fall in the same range of pIC50: 8.00 to 9.00 for the first, 8.00 to 9.00 for the second.

`Cc1cc(-c2ccnc3ccnn23)ccc1CNC(=O)c1noc(C(C)(C)C)n1` [Example 50] and `Cc1cc2c(-c3ccc(CNC(=O)c4noc(C(C)(C)C)n4)c(C)c3)ncnn2c1` [Example 55] cannot be ordered by pIC50: 8.00 to 9.00 for the first, ≥ 9.00 for the second.

Compared with `Cc1cc(-c2c(C#N)cnn3cccc23)ccc1CNC(=O)c1noc(C(C)(C)C)n1` [Example 53], `Cc1c(CNC(=O)c2noc(C(C)(C)C)n2)cc(F)c(-c2ncnn3cccc23)c1F` [Example 63, 5-(tert-butyl)-N-(3,5-difluoro-2-methyl-4-(pyrrolo[2,1-f][1,2,4]triazin-4-yl)benzyl)-1,2,4-oxadiazole-3-carboxamide hydrochloride] is higher in pIC50: < 8.00 for the first, 8.00 to 9.00 for the second. The second is the more potent here.

`Cn1cc(-c2cc3c(-c4ccc(CNC(=O)c5cnn(C(C)(C)C)c5)c(C(F)(F)F)c4)ncnn3c2)cn1` [Example 61, 1-(tert-butyl)-N-(4-(6-(1-methyl-1H-pyrazol-4-yl)pyrrolo[2,1-f][1,2,4]triazin-4-yl)-2-(trifluoromethyl)benzyl)-1H-pyrazole-4-carboxamide] and `Cn1cc(-c2cc3c(-c4ccc(CNC(=O)c5cn(C(C)(C)C)nn5)c(C(F)F)c4)ncnn3c2)cn1` [Example 64, 1-(tert-butyl)-N-(2-(difluoromethyl)-4-(6-(1-methyl-1H-pyrazol-4-yl)pyrrolo[2,1-f][1,2,4]triazin-4-yl)benzyl)-1H-1,2,3-triazole-4-carboxamide hydrochloride] cannot be ordered by pIC50: ≥ 9.00 for the first, ≥ 9.00 for the second.

`CC(C)(C)c1nc(C(=O)NCc2ccc(-c3ncnn4cccc34)c(F)c2C2CC2)no1` [Example 62, 5-(tert-butyl)-N-(2-cyclopropyl-3-fluoro-4-(pyrrolo[2,1-f][1,2,4]triazin-4-yl)benzyl)-1,2,4-oxadiazole-3-carboxamide trifluoroacetate] gave a pIC50 of 8.00 to 9.00.
